pKi: −log10 of the molar value.
Legend:
rat mGlu2 receptor = biological target: T1, rat mGlu2 receptor (Rattus norvegicus, UniProt P31421); assay: [3H]-LY354740 binding on mGlu2 transfected CHO cell membranes; details: inhibition of 10 nM [3H]-LY354740 binding, membranes of CHO cells transfected with rat mGlu2, room temperature, 1 hour
T1 construct: expressed in transfected cells; membranes prepared
Text: [^3H]-LY354740 Binding on mGlu2 Transfected CHO Cell Membranes. Transfection and Cell Culture
cDNA encoding the rat mGlu2 receptor protein in pBluescript II was subcloned into the eukaryotic expression vector pcDNA I-amp from Invitrogen Ltd (Paisley, UK). This vector construct (pcD1mGR2) was co-transfected with a psvNeo plasmid encoding the gene for neomycin resistance, into CHO cells by a modified calcium phosphate method described by Chen & Okayama (1988). The cells were maintained in Dulbecco's Modified Eagle medium with reduced L-glutamine (1 mM final concentration), 36 mg/L L-Proline and 10% dialysed foetal calf serum from Gibco-Invitrogen; the medium was supplemented with 500 microM α-methyl-4-carboxyphenylglycine (MCPG). Selection was made in the presence of G-418 (300 ug/ml final concentration). Clones were identified by reverse transcription of 5 μg total RNA, followed by PCR using mGlu2 receptor specific primers 5′-[…]-3′ and 5′-[…]-3′ in 60 mM Tris HCl (pH 10), 15 mM (NH4)2SO4, 2 mM MgCl2, 25 units/ml Taq Polymerase with 30 cycles annealing at 60° C. for 1 min., extention at 72° C. for 30 s, and 1 min. 95° C. denaturation.
Cells, cultured as above, were harvested and washed three times with cold PBS and frozen at −80° C. The pellet was resuspended in cold 20 mM HEPES-NaOH buffer containing 10 mM EDTA (pH 7.4), and homogenised with a polytron (Kinematica, A G, Littau, Switzerland) for 10 s at 10 000 rpm. After centrifugation for 30 min. at 4° C., the pellet was washed once with cold 20 mM HEPES-NaOH buffer containing 0.1 mM EDTA, (pH 7.4). After a second centrifugation for 30 min. at 4° C. the pellet was resuspended in cold 20 mM HEPES-NaOH buffer containing 0.1 mM EDTA, (pH 7.4). Protein content was measured using the Micro BCA method from Pierce-Perbio (Rockford, Ill., USA) using bovine serum albumin as standard.
After thawing, the membranes were resuspended in cold 50 mM Tris-HCl buffer containing 2 mM MgCl2 (pH 7.4) (binding buffer). The final concentration of the membranes in the assays was 25 μg protein/ml. Inhibition experiments were performed with membranes incubated with 10 nM [^3H]-LY354740 at room temperature, for 1 hour, in presence of various concentrations of the compound to be tested. Following the incubations, membranes were filtered onto Whatmann GF/B glass fiber filters or onto GF/B Unifilter plates and washed 5 times with cold binding buffer. Non specific binding was measured in the presence of 10 μM (2S,2′R,3′R)-2-(2′3′-Dicarboxycyclopropyl)glycine (DCG IV from Tocris, Ellisville, Mo. USA). After transfer of the filters into plastic vials containing 10 ml of Ultima-gold scintillation fluid from Perkin-Elmer (Boston, Mass., USA), the radioactivity was measured by liquid scintillation in a Tri-Carb 2500 TR counter (Packard, Zürich, Switzerland). For 96-Unifilter plates the radioactivity was measured after addition of Microscint 40 scintillation fluid (Perkin Elmer, Boston Mass.) using a TopCount NXT (Packard)
The inhibition curves were fitted with a four parameter logistic equation giving IC50 values, and Hill coefficients.

T1 sequence (P31421 19-872): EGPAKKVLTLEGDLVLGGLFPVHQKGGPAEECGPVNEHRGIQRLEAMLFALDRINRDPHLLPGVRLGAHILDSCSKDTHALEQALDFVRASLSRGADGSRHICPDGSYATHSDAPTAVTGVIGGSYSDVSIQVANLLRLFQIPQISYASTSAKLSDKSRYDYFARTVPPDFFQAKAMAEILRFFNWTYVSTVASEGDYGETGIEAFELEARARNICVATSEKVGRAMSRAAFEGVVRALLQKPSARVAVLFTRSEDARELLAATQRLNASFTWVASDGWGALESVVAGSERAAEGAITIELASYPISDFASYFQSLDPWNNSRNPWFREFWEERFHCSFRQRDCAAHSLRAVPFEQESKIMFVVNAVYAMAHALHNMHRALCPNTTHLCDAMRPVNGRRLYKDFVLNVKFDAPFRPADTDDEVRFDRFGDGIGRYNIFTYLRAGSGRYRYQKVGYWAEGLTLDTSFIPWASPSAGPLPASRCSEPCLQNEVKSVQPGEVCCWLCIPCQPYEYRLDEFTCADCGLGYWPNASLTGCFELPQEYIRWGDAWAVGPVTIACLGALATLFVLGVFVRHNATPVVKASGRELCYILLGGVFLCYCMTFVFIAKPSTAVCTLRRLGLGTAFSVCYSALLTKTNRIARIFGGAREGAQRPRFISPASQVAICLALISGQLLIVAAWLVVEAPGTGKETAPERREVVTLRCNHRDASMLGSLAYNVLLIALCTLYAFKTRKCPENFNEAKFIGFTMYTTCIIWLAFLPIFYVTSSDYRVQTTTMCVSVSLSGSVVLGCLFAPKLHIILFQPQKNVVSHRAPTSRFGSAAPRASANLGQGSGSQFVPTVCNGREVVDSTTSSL

Compound	melting point	pKi (rat mGlu2 receptor)
FC(F)(F)c1ccc(-c2cc(C(F)(F)F)nc(-n3cnc(-c4cccnc4)c3)n2)cc1 [Example 5, 2-(4-Pyridin-3-yl-imidazol-1-yl)-4-trifluoromethyl-6-(4-trifluoromethyl-phenyl)-pyrimidine]	200.5 °C	7.33
Nc1cc(-c2noc(-c3nc(-c4ccc(Cl)cc4)cc(C(F)(F)F)n3)n2)ccn1 [Example 8, 4-{5-[4-(4-Chloro-phenyl)-6-trifluoromethyl-pyrimidin-2-yl]-[1,2,4]oxadiazol-3-yl}-pyridin-2-ylamine]	223.5 °C	7.00
NS(=O)(=O)c1cccc(-c2nc(-c3nc(-c4ccc(C(F)(F)F)cc4)cc(C(F)(F)F)n3)no2)c1 [Example 10, 3-{3-[4-Trifluoromethyl-6-(4-trifluoromethyl-phenyl)-pyrimidin-2-yl]-[1,2,4]oxadiazol-5-yl}-benzenesulfonamide]	205 °C	7.60
Nc1ccc(-c2noc(-c3nc(-c4ccc(C(F)(F)F)cc4)cc(C(F)(F)F)n3)n2)cn1 [Example 11, 5-{5-[4-Trifluoromethyl-6-(4-trifluoromethyl-phenyl)-pyrimidin-2-yl]-[1,2,4]oxadiazol-3-yl}-pyridin-2-ylamine]	218.5 °C	7.67
Nc1ccc(-c2cccc(-c3nc(-c4ccc(C(F)(F)F)cc4)cc(C(F)(F)F)n3)c2)cn1 [Example 26, 5-{3-[4-Trifluoromethyl-6-(4-trifluoromethyl-phenyl)-pyrimidin-2-yl]-phenyl}-pyridin-2-ylamine]	205 °C	7.85
FC(F)(F)c1ccc(-c2cc(C(F)(F)F)nc(-c3cccc(-c4cccnc4)c3)n2)cc1 [Example 33, 2-(3-Pyridin-3-yl-phenyl)-4-trifluoromethyl-6-(4-trifluoromethyl-phenyl)-pyrimidine]	194 °C	7.77
FC(F)(F)c1cc(-c2ccc(Cl)cc2)nc(-c2cccc(-c3cccnc3)c2)n1 [Example 34, 4-(4-Chloro-phenyl)-2-(3-pyridin-3-yl-phenyl)-6-trifluoromethyl-pyrimidine]	162 °C	7.33
NS(=O)(=O)c1ccc(-c2noc(-c3nc(-c4ccc(C(F)(F)F)cc4)cc(C(F)F)n3)n2)cc1 [Example 35, 4-{5-[4-Difluoromethyl-6-(4-trifluoromethyl-phenyl)-pyrimidin-2-yl]-[1,2,4]oxadiazol-3-yl}-benzenesulfonamide]	307 °C	7.51
FC(F)(F)c1ccc(-c2cc(C(F)(F)F)nc(-c3ccncc3)n2)cc1 [Example 39, 2-Pyridin-4-yl-4-trifluoromethyl-6-(4-trifluoromethyl-phenyl)-pyrimidine]	153.5 °C	7.40
Cc1cc(-c2cccc(-c3nc(-c4ccc(C(F)(F)F)cc4)cc(C(F)(F)F)n3)c2)cc(C)n1 [Example 42, 2-[3-(2,6-Dimethyl-pyridin-4-yl)-phenyl]-4-trifluoromethyl-6-(4-trifluoromethyl-phenyl)-pyrimidine]	159 °C	6.85
Nc1ccc(-c2cn(-c3cc(-c4ccc(C(F)(F)F)cc4)cc(C4CC4)n3)cn2)cn1 [Example 54, 5-{1-[6-Cyclopropyl-4-(4-trifluoromethyl-phenyl)-pyridin-2-yl]-1H-imidazol-4-yl}-pyridin-2-ylamine]	233 to 235 °C	7.22
Cc1cc(-c2ccc(C(F)(F)F)cc2)cc(-n2ccnc2)n1 [Example 55, 2-Imidazol-1-yl-6-methyl-4-(4-trifluoromethyl-phenyl)-pyridine]	158 to 160 °C	7.02
Nc1ccc(-c2cn(-c3cc(C(F)(F)F)cc(-c4ccc(Cl)cc4)n3)cn2)cn1 [Example 56, 5-{1-[6-(4-Chloro-phenyl)-4-trifluoromethyl-pyridin-2-yl]-1H-imidazol-4-yl}-pyridin-2-ylamine]	196 °C (dec.)	8.05

Results, then the molecule that gave them:

melting point	pKi (rat mGlu2 receptor)	Compound
164 to 166 °C	7.23	FC(F)(F)c1ccc(-c2cc(C(F)(F)F)cc(-c3cccc(-c4cccnc4)c3)n2)cc1 [Example 59, 2-(3-Pyridin-3-yl-phenyl)-4-trifluoromethyl-6-(4-trifluoromethyl-phenyl)-pyridine]
170 to 172 °C	7.49	Nc1ccc(-c2cccc(-c3cc(C(F)(F)F)cc(-c4ccc(C(F)(F)F)cc4)n3)c2)cn1 [Example 60, 5-{3-[4-Trifluoromethyl-6-(4-trifluoromethyl-phenyl)-pyridin-2-yl]-phenyl}-pyridin-2-ylamine]
89 to 106 °C	7.89	Cc1cc(-c2ccc(C(F)(F)F)cc2)cc(-c2cccc(-c3cccnc3)c2)n1 [Example 61, 2-Methyl-6-(3-pyridin-3-yl-phenyl)-4-(4-trifluoromethyl-phenyl)-pyridine]
68 to 90 °C	8.52	Cc1cc(-c2ccc(C(F)(F)F)cc2)cc(-c2cccc(-c3ccc(N)nc3)c2)n1 [Example 62, 5-{3-[6-Methyl-4-(4-trifluoromethyl-phenyl)-pyridin-2-yl]-phenyl}-pyridin-2-ylamine]
100 to 104 °C	7.54	FC(F)(F)c1ccc(-c2cc(-c3cccc(-c4cccnc4)c3)nc(C3CC3)c2)cc1 [Example 63, 2-Cyclopropyl-6-(3-pyridin-3-yl-phenyl)-4-(4-trifluoromethyl-phenyl)-pyridine]
245 to 247 °C	8.22	Nc1ccc(-c2cn(-c3cc(C(F)(F)F)cc(-c4ccc(C(F)(F)F)cc4)n3)cn2)cn1 [Example 65, 5-{1-[4-Trifluoromethyl-6-(4-trifluoromethyl-phenyl)-pyridin-2-yl]-1H-imidazol-4-yl}-pyridin-2-ylamine]
215 to 217 °C	7.36	Cc1cc(-c2ccc(C(F)(F)F)cc2)cc(-c2cccc(-c3cnc(N)nc3)c2)n1 [Example 70, 5-{3-[6-Methyl-4-(4-trifluoromethyl-phenyl)-pyridin-2-yl]-phenyl}-pyrimidin-2-ylamine]
208 to 211 °C	9.00	Cc1cc(-c2ccc(C(F)(F)F)cc2)cc(-c2cccc(-c3ccc(N)nc3)n2)n1 [Example 71, 6-Methyl-4-(4-trifluoromethyl-phenyl)-[2,2′;6′,3″]terpyridin-6″-ylamine]
219 to 222 °C	7.25	Cc1cc(-c2ccc(C(F)(F)F)cc2)cc(-c2cccc(-c3cnc(N)nc3)n2)n1 [Example 72, 5-[6′-Methyl-4′-(4-trifluoromethyl-phenyl)-[2,2′]bipyridinyl-6-yl]-pyrimidin-2-ylamine]
215 to 227 °C	7.72	Cc1cc(-c2ccc(C(F)(F)F)cc2)cc(-c2cccc(-c3ccc(S(N)(=O)=O)cc3)n2)n1 [Example 73, 4-[6′-Methyl-4′-(4-trifluoromethyl-phenyl)-[2,2′]bipyridinyl-6-yl]-benzenesulfonamide]
194 to 196 °C	8.00	Nc1ccc(-c2cc(-c3cc(C(F)(F)F)cc(-c4ccc(C(F)(F)F)cc4)n3)ccn2)cn1 [Example 74, 4-Trifluoromethyl-6-(4-trifluoromethyl-phenyl)-[2,4′;2′,3″]terpyridin-6″-ylamine]

Reference: patent US8183262B2, “Pyridine derivatives as mGluR2 antagonists” (Hoffmann-La Roche Inc., priority 2007, dated 2012)
